Molecules are shown by their SMILES.

For orientation: IC50 means the concentration at which inhibition is half-maximal. High values mean a need for much substance, low ones inhibition by little substance.

The target of this test is T1, human BTK (Homo sapiens, UniProt Q06187).
T1 construct: GST (Glutathione-S-Transferase) (cleaved yes); made in house; host or cells: Spodoptera frugiperda Sf9 cells (baculovirus, Bac-to-Bac)
T1 sequence (Q06187 382-659): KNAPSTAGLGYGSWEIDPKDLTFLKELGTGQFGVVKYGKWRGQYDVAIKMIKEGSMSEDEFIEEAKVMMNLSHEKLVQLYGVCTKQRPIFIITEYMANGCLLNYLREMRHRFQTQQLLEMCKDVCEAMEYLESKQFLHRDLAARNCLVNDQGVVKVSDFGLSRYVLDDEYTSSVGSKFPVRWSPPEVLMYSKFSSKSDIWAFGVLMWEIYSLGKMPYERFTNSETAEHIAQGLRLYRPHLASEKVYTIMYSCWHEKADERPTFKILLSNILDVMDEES
Put plainly: BTK inhibition assay: BTK-mediated phosphorylation of FAM-labeled substrate 5-FAM-EEPLYWSFPAKKK-NH2 (Caliper LC-3000). The class given is biochemical. Particulars: pIC50 = -log(IC50), IC50 molar; residues 382 to 659 of human BTK; incubated at room temperature for 60 minutes; larger values represent higher potency. The text has this: The activity of compounds as BTK inhibitors may be determined by a variety of methods, including in vitro and in vivo methods.
This construct engineers an in-frame translational fusion with the Glutathione-S-Transferase (GST) protein for use in affinity purification. The fusion protein derived from this construct contains a protease recognition sequence to liberate the BTK from the GST affinity tag. High-titer baculoviral stocks, generated using the Bac-to-Bac® system (Invitrogen), are used to express the recombinant protein in Spodoptera frugiperda Sf9 cells in 10 L Wave bags. Recombinant proteins are isolated from cellular extracts by passage over Glutathione Sepharose 4B (GE Healthcare) and the BTK moiety is released from the GST affinity tag by treatment with PreScission protease. The BTK recombinant protein is further purified by size exclusion chromatography (HiLoad 16/60 Superdex 200, GE Healthcare) in a buffer containing 20 mM Hepes (pH 7.4), 50 mM NaCl, 10 mM MgCl2, 0.25 mM TCEP and 0.1 mM EDTA. The purity of the fractions is assessed by SDS PAGE and the peak protein fractions are pooled and concentrated using Amicon Ultra-15 Centrifugal Filter Devices (Millipore).
The inhibitory properties of compounds relative to BTK is determined using a black 384-well-plate format in a buffer which contains 50 mM Hepes, 10 mM NaCl, 10 mM MgCl2, 0.2 mM EDTA, 0.01% Brij35®, 1 mM DTT, and 0.1 mg/mL BSA at pH 7.3. The test compound is prepared in DMSO using 2-fold serial dilutions for 11 data points, which are added to the buffer so that each dilution contains 3% DMSO. […] The reaction mixtures are incubated at room temperature for 60 minutes and then quenched by adding 25 μL of 50 mM EDTA. To quantify the fluorescent-labeled substrate and product following reaction, the test plate is loaded on a Caliper LC-3000, which measures percent of conversion by microfluidic-based separation.
The compounds were tested in accordance with the assay described on page 34 of the specification.
The compound `CCc1ccc2c(N)c(C(N)=O)nnc2c1-c1ccc2cn[nH]c2c1` [Example 61, 4-amino-7-ethyl-8-(1H-indazol-6-yl)cinnoline-3-carboxamide] had an IC50 of 10 nM.

As for `CCc1ccc2c(N)c(C(N)=O)nnc2c1-c1ccc2[nH]ncc2c1` [Example 62, 4-amino-7-ethyl-8-(1H-indazol-5-yl)cinnoline-3-carboxamide], it took 5.01 nM to reach half-maximal inhibition (IC50). This IC50 is about 2-fold lower than that of the compound before.

`Cc1ccc2c(N)c(C(N)=O)nnc2c1-c1ccc2c(c1)CCNC2=O` [Example 63, 4-amino-7-methyl-8-(1-oxo-1,2,3,4-tetrahydroisoquinolin-6-yl)cinnoline-3-carboxamide] had an IC50 of 25.1 nM.

As for `Cc1cc(-c2cc3[nH]ncc3cc2C)c2nnc(C(N)=O)c(N)c2c1` [Example 64, 4-amino-6-methyl-8-(5-methyl-1H-indazol-6-yl)cinnoline-3-carboxamide], the IC50 is 10 nM.

With `NC(=O)c1nnc2c(-c3ccc4nc(NCC5CC5)[nH]c4c3)cccc2c1N` [Example 65, 4-amino-8-(2-((cyclopropylmethyl)amino)-1H-benzo[d]imidazol-6-yl)cinnoline-3-carboxamide], the IC50 was 63.1 nM.

Compound `CC(C)(C)Cc1nc2ccc(-c3cccc4c(N)c(C(N)=O)nnc34)cc2[nH]1` [Example 66, 4-amino-8-(2-neopentyl-1H-benzo[d]imidazol-6-yl)cinnoline-3-carboxamide] had an IC50 of 631 nM. Compared with the last compound, the IC50 is about 10-fold higher.

`NC(=O)c1nnc2c(-c3ccc4nc(-c5cc(Cl)cc(Cl)c5)[nH]c4c3)cccc2c1N` [Example 67, 4-amino-8-(2-(3,5-dichlorophenyl)-1H-benzo[d]imidazol-6-yl)cinnoline-3-carboxamide] showed an IC50 of 63.1 nM.

For the compound `NC(=O)c1nnc2c(-c3ccc4nc(C5CCCCC5)[nH]c4c3)cccc2c1N` [Example 68, 4-amino-8-(2-cyclohexyl-1H-benzo[d]imidazol-6-yl)cinnoline-3-carboxamide], the IC50 is 158 nM.

Consider `NC(=O)c1nnc2c(-c3ccc4nc(CCc5ccccc5)[nH]c4c3)cccc2c1N` [Example 69, 4-amino-8-(2-phenethyl-1H-benzo[d]imidazol-6-yl)cinnoline-3-carboxamide], for which the IC50 was 31.6 nM.

Consider `NC(=O)c1nnc2c(-c3ccc4nc(-c5ccccc5Cl)[nH]c4c3)cccc2c1N` [Example 70, 4-amino-8-(2-(2-chlorophenyl)-1H-benzo[d]imidazol-6-yl)cinnoline-3-carboxamide], for which the IC50 was 79.4 nM.

Take `NC(=O)c1nnc2c(-c3ccc4nc(-c5cccc(C(F)(F)F)c5)[nH]c4c3)cccc2c1N` [Example 71, 4-amino-8-(2-(3-(trifluoromethyl)phenyl)-1H-benzo[d]imidazol-6-yl)cinnoline-3-carboxamide]: the IC50 is 316 nM. Against the preceding compound, the IC50 is about 4-fold higher.

Compound `NC(=O)c1nnc2c(-c3ccc4nc(C5CCCC5)[nH]c4c3)cccc2c1N` [Example 72, 4-amino-8-(2-cyclopentyl-1H-benzo[d]imidazol-6-yl)cinnoline-3-carboxamide] gave an IC50 of 1260 nM.

As to `NC(=O)c1nnc2c(-c3ccc4nc(-c5ccsc5)[nH]c4c3)cccc2c1N` [Example 73, 4-amino-8-(2-(thiophen-3-yl)-1H-benzo[d]imidazol-6-yl)cinnoline-3-carboxamide], the IC50 was 158 nM.

`COc1ccc(-c2nc3ccc(-c4cccc5c(N)c(C(N)=O)nnc45)cc3[nH]2)cc1` [Example 74, 4-amino-8-(2-(4-methoxyphenyl)-1H-benzo[d]imidazol-6-yl)cinnoline-3-carboxamide] gave an IC50 of 79.4 nM.

As for `NC(=O)c1nnc2c(-c3ccc4nc(-c5cn6ccccc6n5)[nH]c4c3)cccc2c1N` [Example 75, 4-amino-8-(2-(imidazo[1,2-a]pyridin-2-yl)-1H-benzo[d]imidazol-6-yl)cinnoline-3-carboxamide], the IC50 is 126 nM. Against the preceding compound, the IC50 is about 1.6-fold higher.

In turn, `NC(=O)c1nnc2c(-c3ccc4nc(-c5cccc(Cl)c5)[nH]c4c3)cccc2c1N` [Example 76, 4-amino-8-(2-(3-chlorophenyl)-1H-benzo[d]imidazol-6-yl)cinnoline-3-carboxamide] gave an IC50 of 126 nM. In other words, the sub-micromolar range.

Regarding `NC(=O)c1nnc2c(-c3ccc4nc(Cc5ccccc5)[nH]c4c3)cccc2c1N` [Example 77, 4-amino-8-(2-benzyl-1H-benzo[d]imidazol-6-yl)cinnoline-3-carboxamide], the IC50 is 631 nM.

Regarding `NC(=O)c1nnc2c(-c3ccc4nc(CC5CCCCC5)[nH]c4c3)cccc2c1N` [Example 78, 4-amino-8-(2-(cyclohexylmethyl)-1H-benzo[d]imidazol-6-yl)cinnoline-3-carboxamide], the IC50 is 79.4 nM.

The compound `NC(=O)c1nnc2c(-c3ccc4nc(-c5cccs5)[nH]c4c3)cccc2c1N` [Example 79, 4-amino-8-(2-(thiophen-2-yl)-1H-benzo[d]imidazol-6-yl)cinnoline-3-carboxamide] showed an IC50 of 316 nM.

Turning to `Cc1cc(C)cc(-c2nc3ccc(-c4cccc5c(N)c(C(N)=O)nnc45)cc3[nH]2)c1` [Example 80, 4-amino-8-(2-(3,5-dimethylphenyl)-1H-benzo[d]imidazol-6-yl)cinnoline-3-carboxamide], the IC50 was 39.8 nM.

Turning to `NC(=O)c1nnc2c(-c3ccc4nc(CC5CCOCC5)[nH]c4c3)cccc2c1N` [Example 81, 4-amino-8-(2-((tetrahydro-2H-pyran-4-yl)methyl)-1H-benzo[d]imidazol-6-yl)cinnoline-3-carboxamide], the IC50 was 2510 nM.

`NC(=O)c1nnc2c(-c3ccc4nc(-c5cncs5)[nH]c4c3)cccc2c1N` [Example 82, 4-amino-8-(2-(thiazol-5-yl)-1H-benzo[d]imidazol-6-yl)cinnoline-3-carboxamide] showed an IC50 of 200 nM. Against the preceding compound, the IC50 is about 13-fold lower.

In turn, `NC(=O)c1nnc2c(-c3ccc4nc(C5CCCOC5)[nH]c4c3)cccc2c1N` (stereo not shown) [Example 83, 4-amino-8-(2-(tetrahydro-2H-pyran-3-yl)-1H-benzo[d]imidazol-6-yl)cinnoline-3-carboxamide] showed an IC50 of 794 nM.

`NC(=O)c1nnc2c(-c3ccc4nc(C5CCC(F)(F)CC5)[nH]c4c3)cccc2c1N` [Example 84, 4-amino-8-(2-(4,4-difluorocyclohexyl)-1H-benzo[d]imidazol-6-yl)cinnoline-3-carboxamide] had an IC50 of 398 nM.

The compound `NC(=O)c1nnc2c(N3CCc4cn[nH]c4C3)cccc2c1N` [Example 85, 4-amino-8-(4,5-dihydro-1H-pyrazolo[3,4-c]pyridin-6(7H)-yl)cinnoline-3-carboxamide] gave an IC50 of 1000 nM. Compared with the last compound, the IC50 is about 2.5-fold higher.

Compound `NC(=O)c1nnc2c(N3CCc4[nH]ncc4C3)cccc2c1N` [Example 86, 4-amino-8-(6,7-dihydro-1H-pyrazolo[4,3-c]pyridin-5(4H)-yl)cinnoline-3-carboxamide] gave an IC50 of 2000 nM.

As for `NC(=O)c1nnc2c(-c3ccc4nc(Nc5ccccc5)[nH]c4c3)cccc2c1N` [Example 87, 4-amino-8-(2-(phenylamino)-1H-benzo[d]imidazol-6-yl)cinnoline-3-carboxamide], the IC50 is 100 nM. This IC50 lies about 20-fold lower than the previous one.

`NC(=O)c1nnc2c(-c3ccc4nc(NCc5cccs5)[nH]c4c3)cccc2c1N` [Example 88, 4-amino-8-(2-(thiophen-2-ylmethylamino)-1H-benzo[d]imidazol-6-yl)cinnoline-3-carboxamide] showed a 50% inhibitory concentration (IC50) of 10 nM.

In turn, `NC(=O)c1nnc2c(-c3ccc4nc(NCc5ccccc5)[nH]c4c3)cccc2c1N` [Example 90, 4-amino-8-(2-(benzylamino)-1H-benzo[d]imidazol-6-yl)cinnoline-3-carboxamide] gave an IC50 of 15.8 nM.

The compound `CC1CCC(Nc2nc3ccc(-c4cccc5c(N)c(C(N)=O)nnc45)cc3[nH]2)CC1` (stereo not shown) [Example 91, 4-amino-8-(2-(4-methylcyclohexylamino)-1H-benzo[d]imidazol-6-yl)cinnoline-3-carboxamide] gave an IC50 of 79.4 nM. Against the preceding compound, the IC50 is about 5-fold higher.

`CN(Cc1ccccc1)c1nc2ccc(-c3cccc4c(N)c(C(N)=O)nnc34)cc2[nH]1` [Example 92, 4-amino-8-(2-(benzyl(methyl)amino)-1H-benzo[d]imidazol-6-yl)cinnoline-3-carboxamide] gave an IC50 of 1000 nM.

The compound `NC(=O)c1nnc2c(-c3ccc4nc(NCC5CCCC5)[nH]c4c3)cccc2c1N` [Example 93, 4-amino-8-(2-(cyclopentylmethylamino)-1H-benzo[d]imidazol-6-yl)cinnoline-3-carboxamide] had an IC50 of 7.94 nM.

`NC(=O)c1nnc2c(-c3ccc4nc(NCC5C6CC7CC(C6)CC5C7)[nH]c4c3)cccc2c1N` (stereo not shown) [Example 94, 8-(2-((adamantan-2-ylmethyl)amino)-1H-benzo[d]imidazol-6-yl)-4-aminocinnoline-3-carboxamide] showed an IC50 of 63.1 nM.

`Cc1ccc(CNc2nc3ccc(-c4cccc5c(N)c(C(N)=O)nnc45)cc3[nH]2)cc1` [Example 95, 4-amino-8-(2-(4-methylbenzylamino)-1H-benzo[d]imidazol-6-yl)cinnoline-3-carboxamide] had an IC50 of 63.1 nM.

Values taken from patent US9365566B2 (Takeda Pharmaceutical Company Limited, priority 2012, dated 2016).
